Several values for one entry are separate records, joined by “and”; a condition that tells them apart may be missing. Equal values may be shown once. Inconclusive results and toxic doses are left out.
System: B6C3F1 mice, intracerebral ependymoblastoma, median survival T/C
Test: NCI In Vivo Anticancer Drug Screen. Data for tumor model Ependymoblastoma (intracerebral) in B6C3F1 mice
Details: endpoint: median survival time, higher = longer survival
Method: The antitumor activity of compounds was measured in mice bearing transplantable tumors. Survival or tumor size were measured and the results are expressed as the measurement made in the treated group (T) divided by the measurement made in the vehicle treated control group (C). The tumor model used in this assay is Ependymoblastoma (intracerebral) in B6C3F1 mice

[1] = dose: 25.0 mg/kg/injection, schedule: Q01DX005 (ip), vehicle: saline with Tween-80
[2] = dose: 64.0 mg/kg/injection, schedule: Q01DX005 (ip), vehicle: Klucel (hydroxypropylcellulose) (HPC)
[3] = dose: 128.0 mg/kg/injection, schedule: Q01DX005 (ip), vehicle: suspension in saline
[4] = dose: 256.0 mg/kg/injection, schedule: Q01DX005 (ip), vehicle: suspension in saline
[5] = dose: 12.5 mg/kg/injection, schedule: Q01DX005 (ip), vehicle: saline with Tween-80
[6] = dose: 50.0 mg/kg/injection, schedule: Q01DX005 (ip), vehicle: saline with Tween-80
[7] = dose: 100.0 mg/kg/injection, schedule: Q01DX005 (ip), vehicle: saline with Tween-80
[8] = dose: 50.0 mg/kg/injection, schedule: Q01DX005 (ip), vehicle: Klucel (hydroxypropylcellulose) (HPC)
[9] = dose: 100.0 mg/kg/injection, schedule: Q01DX005 (ip), vehicle: Klucel (hydroxypropylcellulose) (HPC)

O=c1n(CC2CO2)c(=O)n(CC2CO2)c(=O)n1CC1CO1 (stereo not drawn)
T/C (dose: 16.4 mg/kg/injection, schedule: Q01DX004 (ip), vehicle: saline): 113 % of control | T/C (dose: 16.4 mg/kg/injection, schedule: Q01DX009 (ip), vehicle: saline): 107 % of control | T/C (dose: 20.0 mg/kg/injection, schedule: Q01DX009 (ip), vehicle: saline): 117 % of control and 119 % of control | T/C (dose: 20.5 mg/kg/injection, schedule: Q01DX004 (ip), vehicle: saline): 111 % of control | T/C (dose: 20.5 mg/kg/injection, schedule: Q01DX009 (ip), vehicle: saline): 112 % of control | T/C [1]: 98 % of control | T/C (dose: 25.6 mg/kg/injection, schedule: Q01DX004 (ip), vehicle: saline): 107 % of control | T/C (dose: 25.6 mg/kg/injection, schedule: Q01DX009 (ip), vehicle: saline): 113 % of control | T/C (dose: 30.0 mg/kg/injection, schedule: Q01DX009 (ip), vehicle: saline): 165 % of control | T/C (dose: 32.0 mg/kg/injection, schedule: Q01DX004 (ip), vehicle: saline): 115 % of control | T/C (dose: 32.0 mg/kg/injection, schedule: Q01DX009 (ip), vehicle: saline): 121 % of control | T/C (dose: 49.2 mg/kg/injection, schedule: Q01DX001 (ip), vehicle: saline): 95 % of control | T/C (dose: 50.0 mg/kg/injection, schedule: Q01DX009 (ip), vehicle: saline): 113 % of control | T/C (dose: 61.4 mg/kg/injection, schedule: Q01DX001 (ip), vehicle: saline): 109 % of control | T/C (dose: 76.8 mg/kg/injection, schedule: Q01DX001 (ip), vehicle: saline): 112 % of control | T/C (dose: 96.0 mg/kg/injection, schedule: Q01DX001 (ip), vehicle: saline): 106 % of control | T/C (dose: 120.0 mg/kg/injection, schedule: Q01DX001 (ip), vehicle: saline): 121 % of control | T/C (dose: 150.0 mg/kg/injection, schedule: Q01DX001 (ip), vehicle: saline): 119 % of control

COc1cc2c(c3c1c(=O)c1ccccc1n3C)C=CC(C)(C)O2
T/C [2]: 114 % of control | T/C [3]: 108 % of control | T/C [4]: 120 % of control

Cc1cnc(/C=N\NC(N)=S)c2cccc(N)c12
T/C [5]: 100 % of control | T/C [1]: 103 % of control | T/C [6]: 104 % of control | T/C [7]: 102 % of control

COc1ccc2cc1Oc1ccc(cc1)C[C@H]1c3cc(c(OC)cc3CCN1C)Oc1c(OC)c(OC)cc3c1[C@H](C2)N(C)CC3
T/C [8]: 100 % of control | T/C [9]: 88 % of control | T/C (dose: 200.0 mg/kg/injection, schedule: Q01DX005 (ip), vehicle: Klucel (hydroxypropylcellulose) (HPC)): 108 % of control | T/C (dose: 400.0 mg/kg/injection, schedule: Q01DX005 (ip), vehicle: Klucel (hydroxypropylcellulose) (HPC)): 91 % of control

O=NN(CCCl)C(=O)NC1CCN(Cc2ccccc2)CC1
T/C (dose: 12.5 mg/kg/injection, schedule: Q01DX001 (ip), vehicle: water): 124 % of control | T/C (dose: 50.0 mg/kg/injection, schedule: Q01DX001 (ip), vehicle: water): 160 % of control | T/C (dose: 100.0 mg/kg/injection, schedule: Q01DX001 (ip), vehicle: water): 242 % of control

C[C@]1(O)CC[C@H]2[C@@H]3CCC4=CC(=O)CC[C@]4(C)[C@@]3(F)[C@@H](O)C[C@@]21C
T/C (dose: 8.0 mg/kg/injection, schedule: Q01DX005 (ip), vehicle: Klucel (hydroxypropylcellulose) (HPC)): 91 % of control and 102 % of control | T/C (dose: 16.0 mg/kg/injection, schedule: Q01DX005 (ip), vehicle: Klucel (hydroxypropylcellulose) (HPC)): 96 % of control and 102 % of control | T/C (dose: 32.0 mg/kg/injection, schedule: Q01DX005 (ip), vehicle: Klucel (hydroxypropylcellulose) (HPC)): 93 % of control | T/C [2]: 97 % of control and 98 % of control | T/C (dose: 128.0 mg/kg/injection, schedule: Q01DX005 (ip), vehicle: Klucel (hydroxypropylcellulose) (HPC)): 92 % of control and 104 % of control | T/C (dose: 256.0 mg/kg/injection, schedule: Q01DX005 (ip), vehicle: Klucel (hydroxypropylcellulose) (HPC)): 93 % of control and 97 % of control | T/C (dose: 512.0 mg/kg/injection, schedule: Q01DX005 (ip), vehicle: Klucel (hydroxypropylcellulose) (HPC)): 91 % of control

O=C1C(NCCO)=C(N2CC2)C(=O)C(NCCO)=C1N1CC1
T/C (dose: 0.06 mg/kg/injection, schedule: Q01DX005 (ip), vehicle: saline): 112 % of control | T/C (dose: 0.12 mg/kg/injection, schedule: Q01DX005 (ip), vehicle: saline): 113 % of control | T/C (dose: 0.19 mg/kg/injection, schedule: Q01DX005 (ip), vehicle: saline): 96 % of control | T/C (dose: 0.25 mg/kg/injection, schedule: Q01DX005 (ip), vehicle: saline): 91 % of control and 120 % of control | T/C (dose: 0.38 mg/kg/injection, schedule: Q01DX005 (ip), vehicle: saline): 100 % of control | T/C (dose: 0.5 mg/kg/injection, schedule: Q01DX005 (ip), vehicle: saline): 106 % of control | T/C (dose: 0.75 mg/kg/injection, schedule: Q01DX005 (ip), vehicle: saline): 117 % of control | T/C (dose: 1.0 mg/kg/injection, schedule: Q01DX005 (ip), vehicle: saline): 114 % of control | T/C (dose: 1.5 mg/kg/injection, schedule: Q01DX005 (ip), vehicle: saline): 120 % of control | T/C (dose: 2.0 mg/kg/injection, schedule: Q01DX005 (ip), vehicle: saline): 110 % of control

Cc1cn(C2CC(O)C(CO)O2)c(=O)[nH]c1=O (stereo not drawn)
T/C (dose: 64.0 mg/kg/injection, schedule: Q01DX005 (ip), vehicle: suspension in saline): 104 % of control | T/C (dose: 125.0 mg/kg/injection, schedule: Q01DX003 (ip), vehicle: saline with Tween-80): 95 % of control | T/C (dose: 125.0 mg/kg/injection, schedule: Q04DX003 (ip), vehicle: saline with Tween-80): 111 % of control | T/C [3]: 94 % of control | T/C (dose: 250.0 mg/kg/injection, schedule: Q01DX003 (ip), vehicle: saline with Tween-80): 99 % of control | T/C (dose: 250.0 mg/kg/injection, schedule: Q04DX003 (ip), vehicle: saline with Tween-80): 113 % of control | T/C [4]: 95 % of control | T/C (dose: 500.0 mg/kg/injection, schedule: Q01DX003 (ip), vehicle: saline with Tween-80): 95 % of control | T/C (dose: 500.0 mg/kg/injection, schedule: Q04DX003 (ip), vehicle: saline with Tween-80): 92 % of control and 120 % of control | T/C (dose: 512.0 mg/kg/injection, schedule: Q01DX005 (ip), vehicle: suspension in saline): 92 % of control | T/C (dose: 800.0 mg/kg/injection, schedule: Q01DX005 (ip), vehicle: saline with Tween-80): 98 % of control | T/C (dose: 1000.0 mg/kg/injection, schedule: Q01DX003 (ip), vehicle: saline with Tween-80): 107 % of control | T/C (dose: 1000.0 mg/kg/injection, schedule: Q04DX003 (ip), vehicle: saline with Tween-80): 106 % of control and 112 % of control | T/C (dose: 1024.0 mg/kg/injection, schedule: Q01DX005 (ip), vehicle: suspension in saline): 103 % of control | T/C (dose: 1600.0 mg/kg/injection, schedule: Q01DX005 (ip), vehicle: saline with Tween-80): 101 % of control | T/C (dose: 2000.0 mg/kg/injection, schedule: Q01DX003 (ip), vehicle: saline with Tween-80): 97 % of control | T/C (dose: 2000.0 mg/kg/injection, schedule: Q04DX003 (ip), vehicle: saline with Tween-80): 116 % of control and 89 % of control | T/C (dose: 3000.0 mg/kg/injection, schedule: Q01DX003 (ip), vehicle: saline with Tween-80): 94 % of control | T/C (dose: 3000.0 mg/kg/injection, schedule: Q04DX003 (ip), vehicle: saline with Tween-80): 94 % of control and 104 % of control | T/C (dose: 3200.0 mg/kg/injection, schedule: Q01DX005 (ip), vehicle: saline with Tween-80): 91 % of control

CN=S(=O)(OCCCCCOS(=O)(=NC)c1ccccc1)c1ccccc1 (stereo not drawn)
T/C (dose: 6.25 mg/kg/injection, schedule: Q01DX005 (ip), vehicle: saline with Tween-80): 110 % of control | T/C [5]: 100 % of control | T/C [1]: 95 % of control and 106 % of control | T/C [6]: 111 % of control and 112 % of control | T/C [7]: 101 % of control and 123 % of control

COc1cc(C[C@H]2c3cc(OC)c(OC)cc3CCN2C)c(Oc2cc3c(cc2OC)-c2c(OC)c(OC)cc4c2[C@H](C3)N(C)CC4)cc1OC
T/C (dose: 12.5 mg/kg/injection, schedule: Q01DX005 (ip), vehicle: Klucel (hydroxypropylcellulose) (HPC)): 94 % of control | T/C (dose: 25.0 mg/kg/injection, schedule: Q01DX005 (ip), vehicle: Klucel (hydroxypropylcellulose) (HPC)): 100 % of control | T/C [8]: 100 % of control and 102 % of control and 105 % of control | T/C [9]: 102 % of control
